# Assay results from paper PMC11237035, “Glutathione determines chronic myeloid leukemia vulnerability to an inhibitor of CMPK and TMPK” (Communications Biology, 2024).
# “And” between values parts separate entries of the source, which are not always exact repeats. Equal values may be shown once.
# Legend:
# Type in all cases: cell-based, human
# KOPM28 cells [1] = test: GSH/GSSG-Glo measurement, KOPM28 cells
# Method: (§1) After 3 days, cells were analyzed by viability assays.
# (§2) The GSH/GSSG-Glo™ Assay Kit (Promega, V6611) was used for luminescent-based measurement of cellular GSH and GSSG by Tecan Spark 10 microplate reader.
# KOPM28 cells [2] = test: DNA fiber assay (replication speed), KOPM28 cells; conditions: erastin 0.5 μM, 16 h
# Method: as §1
# (§3) The DNA fiber assay was performed as described previously. Briefly, cells were sequentially treated with the medium containing 25 μM of CldU (Sigma-Aldrich, C6891) and then 250 μM of IdU (Sigma-Aldrich, I7125) for 20 min. After washing, cells were suspended in PBS (1000 cells/ μL). 2 μL of cell suspension was spotted on slides. After 5 min, 10 μL spread solution (200 mM Tris-HCl, pH 7.5, 50 mM EDTA, and 0.5% SDS) was spotted on the cell droplet and spread on slides. The slides were then fixed with methanol/acetic acid (3:1), followed by denaturation with 2.5 M HCl. After blocking with 5% BSA in TBST, slides were stained with rat anti-BrdU antibody (which detects CldU but not IdU, OBT0030, 1:2000, AbDSerotec) and mouse anti-BrdU antibody (which detects IdU but not CldU, 7580, 1:1000, BD Biosciences) at 4 °C for overnight. The next day, slides were washed with TBST, followed by staining with the secondary antibodies of goat anti-rat IgG conjugated with TRITC (Jackson Lab) and goat anti-mouse IgG conjugated with FITC. Images of DNA fibers were acquired using a microscope (Olympus). The lengths of red- and green-labeled fibers were determined by FluoView3.0 software (Olympus).
# TCCS cells [3] = test: DNA fiber assay (replication speed), TCCS cells; conditions: erastin 0.5 μM, 16 h
# Method: as §1, §3
# TCCS cells [4] = test: GSH/GSSG-Glo measurement, TCCS cells
# Method: as §1, §2
structure (smiles),measurement,setting,value
CCOc1ccccc1-n1c(C(C)N2CCN(C(=O)COc3ccc(Cl)cc3)CC2)nc2ccccc2c1=O (stereo not drawn) [erastin],GSH% relative to K562 in 7e (Figure 7f),"KOPM28 cells [1]; KOPM28, Erastin treated, per replicate",6.981% and 5.472% and 15%
same,GSH level,"KOPM28 cells [1]; KOPM28 cells, erastin 0.5 μM, 16 h",drastically reduced
same,replication stress (DNA fiber),KOPM28 cells [2],induced replication stress
same,replication stress (DNA fiber),TCCS cells [3],induced replication stress
same,GSH level,"TCCS cells [4]; TCCS cells, erastin 0.5 μM, 16 h",drastically reduced
same,GSH% relative to K562 in 7e (Figure 7f),"TCCS cells [4]; TCCS, Erastin treated, per replicate",12.1585% and 8.793% and 13.8%
